The nature of this assay: Anticancer human tumor 997537-175-T-J1-PDC patient-derived colon adenocarcinoma cell line growth inhibition [POLQ]. As to conditions: 997537-175-T-J1-PDC complex spheroid viability, combination with POLQ inhibitors; for viability, T/C: stronger effect = lower value. An outline of the steps:
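Complex spheroid viability model combining PDC tumour cells with endothelial (HUVEC) and MSC stromal cells. Novobiocin, ART-558 or RP6685 were tested singly and in combination with standard and investigational anticancer drugs. Each was titrated in half-log steps from near clinical Cmax, or from 10 microM where Cmax was unknown.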

[1] abbreviates: curve of first compound, second compound 0.0316 µM.
The mark [2] stands for this setting: curve of first compound, second compound 0.1 µM.
The mark [3] stands for this setting: curve of first compound, second compound 0.316 µM.
The mark [4] stands for this setting: curve of first compound, second compound 1 µM.
Setting [5] is: curve of first compound, second compound 3.16 µM.
The mark [6] stands for this setting: curve of first compound, second compound 10 µM.
The mark [7] stands for this setting: second compound 0.0316 µM, first compound 0.0316 µM.
Setting [8] is: second compound 0.0316 µM, first compound 0.1 µM.
[9] abbreviates: second compound 0.0316 µM, first compound 0.316 µM.
The mark [10] stands for this setting: second compound 0.0316 µM, first compound 1 µM.
Where [11] appears, read: second compound 0.0316 µM, first compound 3.16 µM.
The mark [12] stands for this setting: second compound 0.0316 µM, first compound 10 µM.
[13] abbreviates: second compound 0.1 µM, first compound 0.0316 µM.
Where [14] appears, read: second compound 0.1 µM, first compound 0.1 µM.
Setting [15] is: second compound 0.1 µM, first compound 0.316 µM.
The mark [16] stands for this setting: second compound 0.1 µM, first compound 1 µM.
Where [17] appears, read: second compound 0.1 µM, first compound 3.16 µM.
[18] abbreviates: second compound 0.1 µM, first compound 10 µM.
[19] abbreviates: second compound 0.316 µM, first compound 0.0316 µM.
[20] abbreviates: second compound 0.316 µM, first compound 0.1 µM.
[21] abbreviates: second compound 0.316 µM, first compound 0.316 µM.
Setting [22] is: second compound 0.316 µM, first compound 1 µM.
Where [23] appears, read: second compound 0.316 µM, first compound 3.16 µM.
[24] abbreviates: second compound 0.316 µM, first compound 10 µM.
The mark [25] stands for this setting: second compound 1 µM, first compound 0.0316 µM.
Where [26] appears, read: second compound 1 µM, first compound 0.1 µM.
Where [27] appears, read: second compound 1 µM, first compound 0.316 µM.
The mark [28] stands for this setting: second compound 1 µM, first compound 1 µM.
Setting [29] is: second compound 1 µM, first compound 3.16 µM.
[30] abbreviates: second compound 1 µM, first compound 10 µM.
[31] abbreviates: second compound 3.16 µM, first compound 0.0316 µM.
[32] abbreviates: second compound 3.16 µM, first compound 0.1 µM.
The mark [33] stands for this setting: second compound 3.16 µM, first compound 0.316 µM.
Where [34] appears, read: second compound 3.16 µM, first compound 1 µM.
[35] abbreviates: second compound 3.16 µM, first compound 3.16 µM.
Where [36] appears, read: second compound 3.16 µM, first compound 10 µM.
Setting [37] is: second compound 10 µM, first compound 0.0316 µM.
[38] abbreviates: second compound 10 µM, first compound 0.1 µM.
Setting [39] is: second compound 10 µM, first compound 0.316 µM.
The mark [40] stands for this setting: second compound 10 µM, first compound 1 µM.
Where [41] appears, read: second compound 10 µM, first compound 3.16 µM.
The mark [42] stands for this setting: second compound 10 µM, first compound 10 µM.

“And” between values parts separate entries of the source, which are not always exact repeats. Equal values may be shown once.

What is called IC50 is the point on the concentration scale where inhibition reaches its midpoint. What is called viability, T/C is the ratio of treated to control.
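Further: luminescence signal used as a surrogate for viable cells; spheroids exposed to drugs for seven days before readout.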

On to `C#Cc1c(F)ccc2cc(O)cc(-c3ncc4c(N5CC6CCC(C5)N6)nc(OCC56CCCN5CC(F)C6)nc4c3F)c12` (stereo not drawn) + COC1C(OC(N)=O)C(O)C(Oc2ccc3c(O)c(NC(=O)c4ccc(O)c(CC=C(C)C)c4)c(=O)oc3c2C)OC1(C)C, for which the IC50 reads like this: under setting [1], more than 10 µM; under setting [2], more than 10 µM; under setting [3], more than 10 µM; under setting [4], more than 10 µM; under setting [5], more than 10 µM; under setting [6], more than 10 µM. The viability, T/C under setting [7] was 98.8%; the viability, T/C under setting [8] was 111%; the viability, T/C under setting [9] was 103%; the viability, T/C under setting [10] was 108%; the viability, T/C under setting [11] is 112%; the viability, T/C under setting [12] was 107%. Moreover, the viability, T/C is 119% under setting [13]; 104% under setting [14]; 105% under setting [15]; 99% under setting [16]; 123% under setting [17]; 103% under setting [18]. Further, the viability, T/C under setting [19] was 108%; the viability, T/C under setting [20] is 116%; the viability, T/C under setting [21] was 97.9%; the viability, T/C under setting [22] was 104%; the viability, T/C under setting [23] was 101%; the viability, T/C under setting [24] is 98.4%. Moreover, the viability, T/C was 107% under setting [25]; 121% under setting [26]; 94.9% under setting [27]; 95.9% under setting [28]; 111% under setting [29]; 97.9% under setting [30]. Further, the viability, T/C reads like this: under setting [31], 108%; under setting [32], 112%; under setting [33], 84.1%; under setting [34], 104%; under setting [35], 119%; under setting [36], 95.8%. The viability, T/C is, setting by setting: under setting [37], 101%; under setting [38], 108%; under setting [39], 109%; under setting [40], 106%; under setting [41], 110%; under setting [42], 97.1%.
As for `COc1cccc2c1C(=O)c1c(O)c3c(c(O)c1C2=O)CC(O)(C(=O)CO)CC3OC1CC(N)C(O)C(C)O1` (stereo not drawn) + Nc1ccc(C#CCN(C(=O)Cc2ncc(C(F)(F)F)cc2C(F)(F)F)c2ccc(F)cc2)nn1, the concentration for half-maximal inhibition (IC50) stood at 3.2 µM under setting [1]; 1.92 µM under setting [2]; 3.54 µM under setting [3]; 2.12 µM under setting [4]; 2.85 µM under setting [5]; 2.14 µM under setting [6]. In addition, the viability, T/C runs as follows: under setting [7], 102%; under setting [8], 97.5%; under setting [9], 89.1%; under setting [10], 93.5%; under setting [11], 50.4%; under setting [12], 12.2%. The viability, T/C is 99.4% under setting [13]; 114% under setting [14]; 99.9% under setting [15]; 70.6% under setting [16]; 34.4% under setting [17]; 7.13% under setting [18]. In addition, the viability, T/C by setting is: under setting [19], 110%; under setting [20], 109%; under setting [21], 98.8%; under setting [22], 87.7%; under setting [23], 53.2%; under setting [24], 13.9%. The viability, T/C reads like this: under setting [25], 94.1%; under setting [26], 109%; under setting [27], 81.8%; under setting [28], 79.5%; under setting [29], 34.8%; under setting [30], 10.2%. Further, the viability, T/C runs as follows: under setting [31], 94.4%; under setting [32], 107%; under setting [33], 72.6%; under setting [34], 78.8%; under setting [35], 46.6%; under setting [36], 8.26%. The viability, T/C reads like this: under setting [37], 94.7%; under setting [38], 97.9%; under setting [39], 91.4%; under setting [40], 80%; under setting [41], 34.8%; under setting [42], 10.1%.
For `Nc1ccn(C2OC(CO)C(O)C2(F)F)c(=O)n1` (stereo not drawn), the viability, T/C (compound 0.0316 µM) is 104% (2×) and 98.4%; the viability, T/C (compound 0.1 µM) is 93.9% and 111% and 97.5%; the viability, T/C (compound 0.316 µM) is 85.7% and 84.1% and 75%; the viability, T/C (compound 1 µM) is 69.6% and 75.9% and 84.9%; the viability, T/C (compound 3.16 µM) is 80.9% and 85.4% and 87.5%; the viability, T/C (compound 10 µM) is 85% and 80% and 70.2%. Further, the 50% inhibitory concentration (IC50) (curve of compound) is more than 10 µM.
As for `COc1ccc([C@@H](O)c2cc(-c3ncnc4cc(N5CCOCC5)ccc34)c(F)cc2Cl)nn1`, the viability, T/C reads like this: (compound 0.0316 µM) 107% and 102% and 108%; (compound 0.1 µM) 103% and 94.5% and 93.7%; (compound 0.316 µM) 90.6% and 96.5% and 106%; (compound 1 µM) 100% and 105% and 104%; (compound 3.16 µM) 94.8% and 87.4% and 97.1%; (compound 10 µM) 83.2% and 80.4% and 92%. Moreover, for the setting “curve of compound”, the IC50 is more than 10 µM.
On to `CC1COCCN1c1cc(C2(O)CC3CCC(C2)O3)c2cnn(-c3ccn[nH]3)c2n1` (stereo not drawn), for which the viability, T/C (compound 0.0316 µM) was 80.8% and 88.2% and 99.8%; the viability, T/C (compound 0.1 µM) is 88.8% and 81.9% and 65.3%; the viability, T/C (compound 0.316 µM) is 57.4% and 42.1% and 58.8%; the viability, T/C (compound 1 µM) was 49% and 58.5% and 56.2%; the viability, T/C (compound 3.16 µM) was 61.2% and 67.5% and 61.5%; the viability, T/C (compound 10 µM) was 62.1% and 47.6% and 48.3%. The 50% inhibitory concentration (IC50) (curve of compound) was more than 10 µM.
Turning to `Cc1cccc(N(C)C(=O)C2C(O)CCN2c2nc(C)cc(C(F)(F)F)c2C#N)c1` (stereo not drawn), the viability, T/C by setting is: (compound 0.0316 µM) 97.6% [middle of 13 runs]; (compound 0.1 µM) 98.6% [middle of 13 runs]; (compound 0.316 µM) 97.3% [middle of 13 runs]; (compound 1 µM) 101% [middle of 13 runs]; (compound 3.16 µM) 101% [middle of 13 runs]; (compound 10 µM) 96.9% [middle of 13 runs]. The concentration for half-maximal inhibition (IC50) is, setting by setting: (compound alone, run of 11/27/2023) more than 10 µM; (compound alone, run of 12/05/2023) more than 10 µM.

For the origin of these results see PubChem BioAssay AID1963825 (Molecular Pharmacology Branch, DTP, NCI, 2024).
